For the assay, the target named is T1, mouse VISTA (mVISTA) (Mus musculus, UniProt Q9D659).
T1 construct: expressed in transfected cells; host or cells: Human embryonic kidney 293T cells
T1 sequence (Q9D659 33-308): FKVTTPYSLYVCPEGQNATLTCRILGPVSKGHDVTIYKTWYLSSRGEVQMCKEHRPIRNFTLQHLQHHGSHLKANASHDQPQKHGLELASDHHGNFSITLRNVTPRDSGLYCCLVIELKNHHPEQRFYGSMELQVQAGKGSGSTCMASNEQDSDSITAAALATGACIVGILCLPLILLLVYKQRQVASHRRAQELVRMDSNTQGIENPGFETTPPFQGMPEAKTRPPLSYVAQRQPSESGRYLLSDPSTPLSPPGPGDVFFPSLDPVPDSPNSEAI
The experiment in a line: Cell-Based Binding High-Content Assay For mVISTA (HC CBA mVISTA). In outline: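 Read-out: Alexa 647–streptavidin signal imaged on fixed, Hoechst-stained mVISTA-293T cells, with IC50 taken from a four-parameter logistic curve. Compounds competed with 2 nM biotinylated peptide for 30 min at room temperature, tested under both no-wash and wash (1 h compound, media exchange, 1 h) formats.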

The mark [1] stands for this setting: cell-based binding high-content assay, mVISTA, read-out: HC CBA miPr ISTA IC50.

Like-named read-outs stand apart in the source and are kept apart here. Starred links: 1 amine or outer side, 2 acyl side, 3 side chain; linkers in the order of their positions; H or OH if unused. Positions of bridges follow the written chain, without caps; N, C: chain ends. Non-standard residues stand in square brackets, D forms with d. Residues, ends and D or L forms follow the SMILES beside them. ξ: configuration not given here. γGlu = O=C(O)[C@H](CCC(=O)[*:2])N[*:1]; 2Nal = N[C@@H](Cc1ccc2ccccc2c1)C(=O)O; βAsp = O=C(O)[C@H](CC(=O)[*:2])N[*:1]; 4Pal = N[C@@H](Cc1ccncc1)C(=O)O; Tic = O=C(O)[C@@H]1Cc2ccccc2CN1; Cha = N[C@@H](CC1CCCCC1)C(=O)O; Cit = NC(=O)NCCC[C@H](N)C(=O)O; Ahp(2) = CCCCC[C@H](N)C(=O)O; NMeNle = CCCC[C@H](NC)C(=O)O; Tle = CC(C)(C)[C@H](N)C(=O)O; NMeS = CN[C@@H](CO)C(=O)O; Pip = O=C(O)[C@@H]1CCCCN1; NHexGly = CCCCCCNCC(=O)O; Nle = CCCC[C@H](N)C(=O)O; Orn = NCCC[C@H](N)C(=O)O; Aun = NCCCCCCCCCCC(=O)O; AEEA = NCCOCCOCC(=O)O; ξP = O=C(O)C1CCCN1

As usually defined, the IC50 is the concentration needed to halve the response being measured.

On to `CCCCCCN1CC(=O)N[C@@H](Cc2ccc(O)cc2)C(=O)N[C@@H](CC(C)C)C(=O)NCC(=O)N[C@@H](CCCNC(=N)N)C(=O)N(C)[C@@H](CCCC)C(=O)N[C@@H](CCCCC)C(=O)N2CCC[C@H]2C(=O)N[C@@H](C(C)C)C(=O)N[C@@H](CO)C(=O)N[C@H](C(=O)NCC(=O)O)CSCC(=O)N[C@@H](Cc2ccc3ccccc3c2)C(=O)N[C@@H](Cc2ccc(O)cc2)C(=O)N[C@@H](CC(=O)O)C1=O` [Ex 1291] ({CH2CO}-[2Nal]YD[NHexGly]YLGR[NMeNle][Ahp(2)]PVSCG-OH; thioether N-14), for which, for the setting “cell-based binding high-content assay, mVISTA, the 16th table, read-out: HC CBA mVISTA IC50”, the IC50 was found to be 5.1 nM. On to `CCCCCCN1CC(=O)N[C@@H](Cc2ccc(O)cc2)C(=O)N[C@@H](CC(C)C)C(=O)N[C@@H](CC(N)=O)C(=O)N[C@@H](CCCNC(=N)N)C(=O)N(C)[C@@H](CO)C(=O)N[C@@H](CCCCC)C(=O)N2CCC[C@H]2C(=O)N[C@@H](C(C)(C)C)C(=O)N[C@@H](CC(=O)O)C(=O)N[C@H](C(=O)N[C@@H](CC(=O)NCCOCCOCC(=O)N[C@@H](CC(=O)O)C(=O)NCCOCCOCC(=O)NCCCCCCCCCCC(=O)O)C(=O)O)CSCC(=O)N[C@@H](Cc2ccccc2)C(=O)N[C@@H](Cc2c[nH]c3ccccc23)C(=O)N[C@@H](CC(=O)O)C1=O` [compound 2034] ({CH2CO}-FWD[NHexGly]YLNR[NMeS][Ahp(2)]P[Tle]DC[βAsp][AEEA]D[AEEA][Aun]-OH; thioether N-14), for which, under setting [1], the IC50 turned out to be 43.5 nM. On to `CCCCCCN1CC(=O)N[C@@H](Cc2ccc(O)cc2)C(=O)N[C@@H](CCCCC)C(=O)N[C@@H](CC(N)=O)C(=O)N[C@@H](CCCNC(=N)N)C(=O)N(C)[C@@H](CCCC)C(=O)N[C@@H](CCCCC)C(=O)N2CCC[C@H]2C(=O)N[C@@H](C(C)(C)C)C(=O)N[C@@H](CO)C(=O)N[C@H](C(=O)N[C@@H](CCC(=O)NCCCCCCCCCCC(=O)O)C(=O)O)CSCC(=O)N[C@@H](Cc2ccccc2)C(=O)N[C@@H](Cc2ccc(O)cc2)C(=O)N[C@@H](CC(=O)O)C1=O` [Example 2142] ({CH2CO}-FYD[NHexGly]Y[Ahp(2)]NR[NMeNle][Ahp(2)]P[Tle]SC[γGlu][Aun]-OH; thioether N-14), for which the IC50 (read-out: HC CBA mVISTA IC50) was found to be 32.5 nM.

As for `CCCCCCN1CC(=O)N[C@@H](Cc2ccc(O)cc2)C(=O)N[C@@H](CCCC)C(=O)N[C@@H](CC(N)=O)C(=O)N[C@@H](CCCNC(=N)N)C(=O)N2Cc3ccccc3C[C@H]2C(=O)N[C@@H](CCCCC)C(=O)N2CCC[C@H]2C(=O)N[C@@H](C(C)(C)C)C(=O)N[C@@H](CO)C(=O)N[C@H](C(=O)NCCOCCOCC(=O)N[C@@H](CCC(=O)NCCOCCOCC(=O)NCCCCCCCCCCC(=O)O)C(=O)O)CSCC(=O)N[C@@H](Cc2ccccc2)C(=O)N[C@@H](Cc2c[nH]c3ccccc23)C(=O)N[C@@H](CC(=O)O)C1=O` [compound 2244] ({CH2CO}-FWD[NHexGly]Y[Nle]NR[Tic][Ahp(2)]P[Tle]SC[AEEA][γGlu][AEEA][Aun]-OH; thioether N-14), the IC50 (read-out: HC CBA mVISTA IC50) is 32.2 nM. On to `CCCCCCN1CC(=O)N[C@@H](Cc2ccc(O)cc2)C(=O)N[C@@H](CCCC)C(=O)N[C@@H](CC(=O)O)C(=O)N[C@@H](CCCNC(N)=O)C(=O)N[C@@H](CC(C)C)C(=O)N[C@@H](CCCCC)C(=O)N2CCC[C@H]2C(=O)N[C@@H](C(C)C)C(=O)N[C@@H](CC(N)=O)C(=O)N[C@H](C(=O)NCC(=O)NCCOCCOCC(=O)N[C@@H](CC(=O)O)C(=O)NCCOCCOCC(=O)NCCCCCCCCCCC(=O)O)CSCC(=O)N[C@@H](Cc2ccccc2)C(=O)N[C@@H](Cc2ccc(O)cc2)C(=O)N[C@@H](CC(=O)O)C1=O` [compound 2018] ({CH2CO}-FYD[NHexGly]Y[Nle]D[Cit]L[Ahp(2)]PVNCG[AEEA]D[AEEA][Aun]-OH; thioether N-14), for which, under setting [1], the IC50 was determined as 20.4 nM. On to `CCCCCCN1CC(=O)N[C@@H](Cc2ccc(O)cc2)C(=O)N[C@@H](CCCCC)C(=O)NCC(=O)N[C@@H](CCCNC(=N)N)C(=O)N[C@@H](CC(C)C)C(=O)N[C@@H](CCCCC)C(=O)N2CCC[C@H]2C(=O)N[C@@H](C(C)C)C(=O)N[C@@H](CO)C(=O)N[C@H](C(=O)NCCOCCOCC(=O)N[C@@H](CC(=O)O)C(=O)NCCOCCOCC(=O)NCCCCCCCCCCC(=O)O)CSCC(=O)N[C@@H](Cc2ccccc2)C(=O)N[C@@H](Cc2ccc(O)cc2)C(=O)N[C@@H](CC(=O)O)C1=O` [compound 2292] ({CH2CO}-FYD[NHexGly]Y[Ahp(2)]GRL[Ahp(2)]PVSC[AEEA]D[AEEA][Aun]-OH; thioether N-14), for which, for the setting “cell-based binding high-content assay, read-out: HC CBA miPrISTA IC50”, the IC50 came to 18.2 nM. Take `CCCCCCN1CC(=O)N[C@@H](Cc2ccc(O)cc2)C(=O)N[C@@H](C(C)C)C(=O)NCC(=O)N[C@@H](CCCNC(=N)N)C(=O)N[C@@H](CC(C)C)C(=O)N[C@@H](CCCCC)C(=O)N2CCC[C@H]2C(=O)N[C@@H](C(C)C)C(=O)N[C@@H](CC(=O)O)C(=O)N[C@H](C(=O)NCC(N)=O)CSCC(=O)N[C@@H](Cc2ccc3ccccc3c2)C(=O)N[C@@H](Cc2c[nH]c3ccccc23)C(=O)N[C@@H](CC(=O)O)C1=O` [compound 1228] ({CH2CO}-[2Nal]WD[NHexGly]YVGRL[Ahp(2)]PVDCG-NH2; thioether N-14): where the note is “cell-based binding high-content assay, mVISTA, the 15th table, read-out: HC CBA mVISTA IC50”, the IC50 is 27.1 nM. For the compound `CCCCCCN1CC(=O)N[C@@H](Cc2ccc(O)cc2)C(=O)N[C@@H](CCCC)C(=O)N[C@@H](CC(=O)O)C(=O)N[C@@H](CCCNC(=N)N)C(=O)N[C@@H](CC(C)C)C(=O)N[C@@H](CCCCC)C(=O)N2CCCC2C(=O)N[C@@H](C(C)C)C(=O)N[C@@H](CC(N)=O)C(=O)N[C@H](C(=O)NCC(=O)N[C@@H](CC(=O)NCCOCCOCC(=O)N[C@@H](CC(=O)O)C(=O)NCCOCCOCC(=O)NCCCCCCCCCCC(=O)O)C(=O)O)CSCC(=O)N[C@@H](Cc2ccccc2)C(=O)N[C@@H](Cc2ccc(O)cc2)C(=O)N[C@@H](CC(=O)O)C1=O` (stereo partly shown) [compound 2108] ({CH2CO}-FYD[NHexGly]Y[Nle]DRL[Ahp(2)][ξP]VNCG[βAsp][AEEA]D[AEEA][Aun]-OH; thioether N-14), where the note is “read-out: HC CBA mVISTA IC50”, the IC50 was 14.4 nM. On the same count and under the same terms, the figure for `CCCCCCN1CC(=O)N[C@@H](Cc2ccc(O)cc2)C(=O)N[C@@H](CCCCC)C(=O)N[C@@H](CC(N)=O)C(=O)N[C@@H](CCCNC(=N)N)C(=O)N(C)[C@@H](CCCC)C(=O)N[C@@H](CCCCC)C(=O)N2CCC[C@H]2C(=O)N[C@@H](C(C)C)C(=O)N[C@@H](CC(=O)O)C(=O)N[C@H](C(=O)NCC(=O)O)CSCC(=O)N[C@@H](Cc2ccccc2)C(=O)N[C@@H](Cc2c[nH]c3ccccc23)C(=O)N[C@@H](CC(=O)O)C1=O` [Example 1386] ({CH2CO}-FWD[NHexGly]Y[Ahp(2)]NR[NMeNle][Ahp(2)]PVDCG-OH; thioether N-14) is 8.8 nM. `CCCCCCN1CC(=O)N[C@@H](Cc2ccc(O)cc2)C(=O)N[C@@H](CCCC)C(=O)N[C@@H](CC(=O)O)C(=O)N[C@@H](CCCNC(=N)N)C(=O)N[C@@H](CC(C)C)C(=O)N[C@@H](CCCCC)C(=O)N2CCC[C@H]2C(=O)N[C@@H](C(C)C)C(=O)N[C@@H](CC(C)C)C(=O)N[C@H](C(=O)NCC(=O)O)CSCC(=O)N[C@@H](Cc2ccccc2)C(=O)N[C@@H](Cc2ccc(O)cc2)C(=O)N[C@@H](CC(=O)O)C1=O` [Example 1025] ({CH2CO}-FYD[NHexGly]Y[Nle]DRL[Ahp(2)]PVLCG-OH; thioether N-14): the IC50 (293T cells expressing mouse VISTA, competition with biotinylated peptide (2 nM), read-out: HC CBA mVISTA IC50) amounted to 30.6 nM. Regarding `CCCCCCN1CC(=O)N[C@@H](Cc2ccc(O)cc2)C(=O)N[C@@H](CCCC)C(=O)N[C@@H](CC(N)=O)C(=O)N[C@@H](CCCNC(=N)N)C(=O)N(C)[C@@H](CCCC)C(=O)N[C@@H](CCCCC)C(=O)N2CCC[C@H]2C(=O)N[C@@H](C(C)(C)C)C(=O)N[C@@H](CO)C(=O)N[C@H](C(=O)NCCOCCOCC(=O)N[C@@H](CCC(=O)NCCOCCOCC(=O)NCCCCCCCCCCC(=O)O)C(=O)O)CSCC(=O)N[C@@H](Cc2ccncc2)C(=O)N[C@@H](Cc2c[nH]c3ccccc23)C(=O)N[C@@H](CC(=O)O)C1=O` [compound 2253] ({CH2CO}-[4Pal]WD[NHexGly]Y[Nle]NR[NMeNle][Ahp(2)]P[Tle]SC[AEEA][γGlu][AEEA][Aun]-OH; thioether N-14), the IC50 (read-out: HC CBA mVISTA IC50) came out at 20.7 nM. Turning to `CCCCCCN1CC(=O)N[C@@H](Cc2ccc(O)cc2)C(=O)N[C@@H](CC2CCCCC2)C(=O)N[C@@H](CC(N)=O)C(=O)N[C@@H](CCCN)C(=O)N(C)[C@@H](CCCC)C(=O)N[C@@H](CCCCC)C(=O)N2CCC[C@H]2C(=O)N[C@@H](C(C)(C)C)C(=O)N[C@@H](CO)C(=O)N[C@H](C(=O)N[C@@H](CC(=O)NCCOCCOCC(=O)N[C@@H](CC(=O)O)C(=O)NCCOCCOCC(=O)NCCCCCCCCCCC(=O)O)C(=O)O)CSCC(=O)N[C@@H](Cc2ccccc2)C(=O)N[C@@H](Cc2ccc(O)cc2)C(=O)N[C@@H](CC(=O)O)C1=O` [compound 2055] ({CH2CO}-FYD[NHexGly]Y[Cha]N[Orn][NMeNle][Ahp(2)]P[Tle]SC[βAsp][AEEA]D[AEEA][Aun]-OH; thioether N-14), under setting [1], the IC50 amounted to 32.7 nM. As for `CCCCCCN1CC(=O)N[C@@H](Cc2ccc(O)cc2)C(=O)N[C@@H](CCCC)C(=O)N[C@@H](CC(N)=O)C(=O)N[C@@H](CCCNC(=N)N)C(=O)N(C)[C@@H](CCCC)C(=O)N[C@@H](CCCCC)C(=O)N2CCCC[C@H]2C(=O)N[C@@H](C(C)C)C(=O)N[C@@H](CO)C(=O)N[C@H](C(=O)NCC(N)=O)CSCC(=O)N[C@@H](Cc2ccccc2)C(=O)N[C@@H](Cc2c[nH]c3ccccc23)C(=O)N[C@@H](CC(=O)O)C1=O` [compound 1145] ({CH2CO}-FWD[NHexGly]Y[Nle]NR[NMeNle][Ahp(2)][Pip]VSCG-NH2; thioether N-14), where the note is “read-out: HC CBA mVISTA IC50”, the IC50 was determined as 28.6 nM.
